Values after ≈ are worked out from the molar mass of the structure shown. Read-outs that look alike come from different tables or passages of the source.
Columns and labels:
[1] = system: Staphylococcuss aureus HPC 292; experiment: Antibacterial spectrum, MIC by twofold agar dilution method; type: cell-based
Experimental: (§1) Overnight cultures in Mueller-Hinton broth were suspended by buffered saline gelatin. One loopful of the bacterial suspension (10^6 or 10^8 colony-forming units/ml) was incubated onto the plates containing test compounds. The plates were incubated for 18 hrs at 37° C. The MIC was defined by the lowest concentration of the drug that inhibited visible growth of bacteria.

[2] = system: Escherichia coli NIHJ JC-2; experiment: as above; type: cell-based; details: NIHJJC2, 10^6 cfu/ml, standard laboratory strain, Gram -, 18 hrs at 37° C
Experimental: as §1

[3] = system: Enterobacter cloacae HNR 1939; experiment: as above; type: cell-based; details: HNR1939, 10^6 cfu/ml, clinically isolated strain, Gram -, 18 hrs at 37° C
Experimental: as §1

[4] = system: Staphylococcuss aureus HPC 308; experiment: as above; type: cell-based; details: 10^6 cfu/ml; clinically isolated strain, Gram +; 18 hrs at 37° C
Experimental: as §1

[5] = system: Serratia marcescens HNR 1767; experiment: as above; type: cell-based; details: HNR1767, 10^6 cfu/ml, clinically isolated strain, Gram -, 18 hrs at 37° C
Experimental: as §1

Enterobacter cloacae 963 = experiment: as above; type: cell-based; details: 10^6 cfu/ml, standard laboratory strain, Gram -, 18 hrs at 37° C
Experimental: as §1

[6] = system: Acinetobacter calcoaceticus HNR 904; experiment: as above; type: cell-based; details: HNR904, 10^6 cfu/ml, clinically isolated strain, Gram -, 18 hrs at 37° C
Experimental: as §1

[7] = system: Pseudomonas aeruginosa HNR 1489; experiment: as above; type: cell-based; details: HNR1489, 10^6 cfu/ml, clinically isolated strain, Gram -, 18 hrs at 37° C
Experimental: as §1

[8] = system: Enterobacter cloacae HNR 1941; experiment: as above; type: cell-based; details: HNR1941, 10^6 cfu/ml, clinically isolated strain, Gram -, 18 hrs at 37° C
Experimental: as §1

[9] = system: Enterococcus faecalis HPC 975; experiment: as above; type: cell-based; details: HPC975, 10^6 cfu/ml, clinically isolated strain, Gram +, 18 hrs at 37° C
Experimental: as §1

[10] = system: Serratia marcescens HNR 1792; experiment: as above; type: cell-based; details: HNR1792, 10^6 cfu/ml, clinically isolated strain, Gram -, 18 hrs at 37° C
Experimental: as §1

[11] = system: Klebsiella pneumoniae HNR 828; experiment: as above; type: cell-based; details: HNR828, 10^6 cfu/ml, clinically isolated strain, Gram -, 18 hrs at 37° C
Experimental: as §1

[12] = system: Pseudomonas aeruginosa IFO 3445; experiment: as above; type: cell-based; details: IFO3445, 10^6 cfu/ml, standard laboratory strain, Gram -, 18 hrs at 37° C
Experimental: as §1

[13] = system: Pseudomonas aeruginosa HNR 1537; experiment: as above; type: cell-based; details: HNR1537, 10^6 cfu/ml, clinically isolated strain, Gram -, 18 hrs at 37° C
Experimental: as §1

[14] = system: Acinetobacter calcoaceticus HNR 916; experiment: as above; type: cell-based; details: HNR916, 10^6 cfu/ml, clinically isolated strain, Gram -, 18 hrs at 37° C
Experimental: as §1

[15] = system: Acinetobacter calcoaceticus HNR 939; experiment: as above; type: cell-based; details: HNR939, 10^6 cfu/ml, clinically isolated strain, Gram -, 18 hrs at 37° C
Experimental: as §1

[16] = system: Staphylococcuss aureus HPC 527; experiment: as above; type: cell-based; details: 10^6 cfu/ml; clinically isolated strain, Gram +; 18 hrs at 37° C
Experimental: as §1

[17] = system: Pseudomonas aeruginosa HNR 1472; experiment: as above; type: cell-based; details: HNR1472, 10^6 cfu/ml, clinically isolated strain, Gram -, 18 hrs at 37° C
Experimental: as §1

[18] = system: Enterobacter cloacae HNR 1946; experiment: as above; type: cell-based; details: HNR1946, 10^6 cfu/ml, clinically isolated strain, Gram -, 18 hrs at 37° C
Experimental: as §1

[19] = system: Serratia marcescens IAM 1184; experiment: as above; type: cell-based; details: IAM1184, 10^6 cfu/ml, standard laboratory strain, Gram -, 18 hrs at 37° C
Experimental: as §1

[20] = system: Klebsiella pneumoniae HNR 858; experiment: as above; type: cell-based; details: HNR858, 10^6 cfu/ml, clinically isolated strain, Gram -, 18 hrs at 37° C
Experimental: as §1

[21] = system: Enterococcus faecalis HPC 984; experiment: as above; type: cell-based; details: HPC984, 10^6 cfu/ml, clinically isolated strain, Gram +, 18 hrs at 37° C
Experimental: as §1

[22] = system: Klebsiella pneumoniae HNR 869; experiment: as above; type: cell-based; details: HNR869, 10^6 cfu/ml, clinically isolated strain, Gram -, 18 hrs at 37° C
Experimental: as §1

[23] = system: Serratia marcescens HNR 1544; experiment: as above; type: cell-based; details: HNR1544, 10^6 cfu/ml, clinically isolated strain, Gram -, 18 hrs at 37° C
Experimental: as §1

[24] = system: Enterococcus faecalis HPC 948; experiment: as above; type: cell-based; details: HPC948, 10^6 cfu/ml, clinically isolated strain, Gram +, 18 hrs at 37° C
Experimental: as §1

[25] = system: Staphylococuss aureus FDA 209PJC-1; experiment: as above; type: cell-based; details: 10^6 cfu/ml; standard laboratory strain, Gram +; 18 hrs at 37° C
Experimental: as §1

[26] = system: Klebsiella pneumoniae PCI-602; experiment: as above; type: cell-based; details: PCI602, 10^6 cfu/ml, standard laboratory strain, Gram -, 18 hrs at 37° C, read-out: MIC
Experimental: as §1, with “Minimum inhibitory concentrations (MIC) of test compounds were determined by the twofold agar dilution method (Chemotherapy, 29(1), 76(1981)). Overnight” for “Overnight”

Male mice of ddY strain = experiment: Convulsion inducing activity in combination with fenbufen; details: 30 min after fenbufen 100 mg/kg orally
Experimental: Male mice of ddY strain, 5 weeks old, were used. Fenbufen suspended in 0.5% carboxymethyl cellulose was administered orally at a dose of 100 mg/kg. After thirty minutes, test compounds suspended in 0.5% carboxymethyl cellulose were injected intraperitoneally (i.p.) at a dose of 100 mg/kg or 300 mg/kg.

[27] = 10^6 cfu/ml, clinically isolated strain, Gram +, 18 hrs at 37° C, read-out: MIC

Row | MIC [2] | MIC [3] | MIC [5] | MIC (Enterobacter cloacae 963) | MIC [7] | MIC [8] | MIC [9] | MIC [11] | MIC [12] | MIC [13] | MIC [14] | MIC [15] | MIC [16] | MIC [18] | MIC [19] | MIC [20] | MIC [21] | MIC [22] | MIC [23] | MIC [24] | Compound | also measured
1 | 0.025 µg/mL (≈ 0.0651 µM) | 0.2 µg/mL (≈ 0.521 µM) | 6.25 µg/mL (≈ 16.3 µM) | 0.025 µg/mL (≈ 0.0651 µM) | 0.2 µg/mL (≈ 0.521 µM) | 1.56 µg/mL (≈ 4.06 µM) | 12.5 µg/mL (≈ 32.6 µM) | 3.13 µg/mL (≈ 8.15 µM) | 0.1 µg/mL (≈ 0.261 µM) | 3.13 µg/mL (≈ 8.15 µM) | 0.1 µg/mL (≈ 0.261 µM) | 1.56 µg/mL (≈ 4.06 µM) | 0.05 µg/mL (≈ 0.13 µM) | 0.2 µg/mL (≈ 0.521 µM) | 0.05 µg/mL (≈ 0.13 µM) | 0.2 µg/mL (≈ 0.521 µM) | 0.2 µg/mL (≈ 0.521 µM) | 0.78 µg/mL (≈ 2.03 µM) | 0.05 µg/mL (≈ 0.13 µM) | 0.78 µg/mL (≈ 2.03 µM) | CC1Sc2c(C(=O)O)c(=O)c3cc(F)c(N4CCC(N)C4)c(Cl)c3n21 (stereo not drawn) [Example 34, 7-(3-Amino-1-pyrrolidinyl)-8-chloro-6-fluoro-1-methyl-4-oxo-1H,4H-[1,3]thiazeto[3,2-a]quinoline-3-carboxylic acid] | Number of convulsion induced/Number of animals (Male mice of ddY strain; 100 mg/kg (i.p.)): 0/6; Number of convulsion induced/Number of animals (Male mice of ddY strain; 300 mg/kg (i.p.)): 0/6; MIC [1, 27]: 6.25 µg/mL (≈ 16.3 µM); MIC [17]: 3.13 µg/mL (≈ 8.15 µM); MIC [25]: 0.05 µg/mL (≈ 0.13 µM); MIC [26]: 0.012 µg/mL (≈ 0.0313 µM)
2 | – | – | – | – | – | – | – | – | – | – | – | – | – | – | – | – | – | – | – | – | CC1Sc2c(C(=O)O)c(=O)c3cc(F)c(N4CCC(N)C4)cc3n21 (stereo not drawn) [Reference Drug D, 7-(3-amino-1-pyrrolidinyl)-6-fluoro-1-methyl-4-oxo-1H,4H-[1,3]thiazeto[3,2-a]quinoline-3-carboxylic acid, reference compound] | Number of convulsion induced/Number of animals (Male mice of ddY strain; 100 mg/kg (i.p.)): 0/6; Number of convulsion induced/Number of animals (Male mice of ddY strain; 300 mg/kg (i.p.)): 0/6
3 | 0.025 µg/mL (≈ 0.068 µM) | 0.2 µg/mL (≈ 0.544 µM) | 12.5 µg/mL (≈ 34 µM) | 0.05 µg/mL (≈ 0.136 µM) | 0.2 µg/mL (≈ 0.544 µM) | 3.13 µg/mL (≈ 8.52 µM) | 6.25 µg/mL (≈ 17 µM) | 3.13 µg/mL (≈ 8.52 µM) | 0.1 µg/mL (≈ 0.272 µM) | 12.5 µg/mL (≈ 34 µM) | 0.2 µg/mL (≈ 0.544 µM) | 1.56 µg/mL (≈ 4.25 µM) | 0.05 µg/mL (≈ 0.136 µM) | 0.2 µg/mL (≈ 0.544 µM) | 0.1 µg/mL (≈ 0.272 µM) | 0.2 µg/mL (≈ 0.544 µM) | 0.2 µg/mL (≈ 0.544 µM) | 0.78 µg/mL (≈ 2.12 µM) | 0.05 µg/mL (≈ 0.136 µM) | 0.78 µg/mL (≈ 2.12 µM) | CC1Sc2c(C(=O)O)c(=O)c3cc(F)c(N4CCC(N)C4)c(F)c3n21 (stereo not drawn) [Example 33, 7-(3-amino-1-pyrrolidinyl)-6,8-difluoro-1-methyl-4-oxo-1H,4H-[1,3] thiazeto[3,2-a]quinoline-3-carboxylic acid] | Number of convulsion induced/Number of animals (Male mice of ddY strain; 100 mg/kg (i.p.)): 0/6; Number of convulsion induced/Number of animals (Male mice of ddY strain; 300 mg/kg (i.p.)): 0/6; MIC [1, 27]: 6.25 µg/mL (≈ 17 µM); MIC [6]: 25 µg/mL (≈ 68 µM); MIC [10]: 1.56 µg/mL (≈ 4.25 µM); MIC [25]: 0.025 µg/mL (≈ 0.068 µM)

Row | Compound | MIC [2] | MIC [3] | MIC [5] | MIC (Enterobacter cloacae 963) | MIC [7] | MIC [8] | MIC [9] | MIC [11] | MIC [12] | MIC [13] | MIC [14] | MIC [15] | MIC [16] | MIC [18] | MIC [19] | MIC [20] | MIC [21] | MIC [22] | MIC [23] | MIC [24] | also measured
4 | CC1Sc2c(C(=O)O)c(=O)c3cc(F)c(N4CC[C@H](N(C)C)C4)c(F)c3n21 (stereo partly drawn) [Example 37, 7-((S)-3-Dimethylamino-1-pyrrolidinyl)-6,8-difluoro-1-methyl-4-oxo-1H,4H-[1,3]thiazeto[3,2-a]quinoline-3-carboxylic acid] | 0.1 µg/mL (≈ 0.253 µM) | 0.78 µg/mL (≈ 1.97 µM) | 25 µg/mL (≈ 63.2 µM) | 0.2 µg/mL (≈ 0.506 µM) | 0.78 µg/mL (≈ 1.97 µM) | 25 µg/mL (≈ 63.2 µM) | 12.5 µg/mL (≈ 31.6 µM) | 12.5 µg/mL (≈ 31.6 µM) | 0.78 µg/mL (≈ 1.97 µM) | 100 µg/mL (≈ 253 µM) | 0.2 µg/mL (≈ 0.506 µM) | 1.56 µg/mL (≈ 3.95 µM) | 0.2 µg/mL (≈ 0.506 µM) | 1.56 µg/mL (≈ 3.95 µM) | 0.39 µg/mL (≈ 0.986 µM) | 0.78 µg/mL (≈ 1.97 µM) | 0.78 µg/mL (≈ 1.97 µM) | 3.13 µg/mL (≈ 7.92 µM) | 0.2 µg/mL (≈ 0.506 µM) | 3.13 µg/mL (≈ 7.92 µM) | MIC ([1]; 18 h): 6.25 µg/mL (≈ 15.8 µM); MIC [4]: 3.13 µg/mL (≈ 7.92 µM); MIC [6]: 25 µg/mL (≈ 63.2 µM); MIC [10]: 12.5 µg/mL (≈ 31.6 µM); MIC [17]: 50 µg/mL (≈ 126 µM); MIC [25]: 0.2 µg/mL (≈ 0.506 µM); MIC [26]: 0.05 µg/mL (≈ 0.126 µM)

Source: patent US5126337A, “Thiazetoquinoline-3-carboxylic acid derivative and a pharmaceutical composition comprising the same” (priority 1989, dated 1992)
